Values of other authors as cited in PMC4853309 (Protein expression and purification, 2015).

Target: NprR
Conditions: read-out: estimated binding affinity (KD); cited from earlier work

Question: For SKPDIVG [NprX7], which Kd is on record?
Answer: The Kd was roughly 50 nM.
